The values below come from US12617783B2, “Heterocyclic GLP-1R agonists” (BIOMEA FUSION, INC., priority 2024, dated 2026).

For one assay, the target named is T1, human GLP-1R (Homo sapiens, UniProt P43220).
T1 construct: host or cells: HEK293
T1 sequence (P43220 24-463): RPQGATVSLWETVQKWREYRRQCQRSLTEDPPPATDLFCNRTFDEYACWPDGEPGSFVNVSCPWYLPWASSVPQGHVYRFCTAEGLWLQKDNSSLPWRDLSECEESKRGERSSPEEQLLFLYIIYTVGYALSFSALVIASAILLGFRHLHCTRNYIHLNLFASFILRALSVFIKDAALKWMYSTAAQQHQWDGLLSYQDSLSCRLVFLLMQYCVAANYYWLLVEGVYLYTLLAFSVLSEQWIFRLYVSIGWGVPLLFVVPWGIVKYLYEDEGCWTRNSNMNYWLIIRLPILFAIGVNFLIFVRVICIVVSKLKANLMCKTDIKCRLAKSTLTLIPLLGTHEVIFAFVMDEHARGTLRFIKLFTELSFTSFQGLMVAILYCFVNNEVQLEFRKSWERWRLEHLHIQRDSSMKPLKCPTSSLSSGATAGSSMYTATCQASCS
The assay is described as follows: GLP-1R cAMP assay (Example B1a, HTRF, 30 min at room temperature). Type of assay: cell-based. Conditions: cAMP accumulation in HEK293 expressing human GLP-1R, no BETP, 30 min room temperature (Method B1a, compounds ID 1-609), Table 1; read-out: EC50. Summed up:
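Competitive HTRF read-out of cAMP after 30 min room-temperature stimulation, BETP absent, of human GLP-1R-HEK293 cells (1,000/well) in HEPES buffer with 500 μM IBMX and 0.1% BSA. Activation normalised to GLP-1(7-37) positive control. EC50 from 4-parameter non-linear regression.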
For orientation: Cyclic AMP is a second messenger, typically raised through Gs and lowered through Gi signalling.
As for `Cc1cc(-n2nc3c(c2N2C(=O)CN(c4ccc5c(cnn5C)c4F)C2=O)[C@H]2CC[C@@H](C3)N2C(=O)c2cc3cc([C@H]4CCOC(C)(C)C4)ccc3n2[C@@]2(c3noc(=O)[nH]3)C[C@@H]2C)cc(C)c1F` [Compound 234, 3-[(1R,8S)-11-[5-[(4S)-2,2-dimethyltetrahydropyran-4-yl]-1-[(1S,2S)-2-methyl-1-(5-oxo-4H-1,2,4-oxadiazol-3-yl)cyclopropyl]indole-2-carbonyl]-4-(4-fluoro-3,5-dimethyl-phenyl)-4,5,11-triazatricyclo[6.2.1.02,6]undeca-2,5-dien-3-yl]-1-(4-fluoro-1-methyl-indazol-5-yl)imidazolidine-2,4-dione], the EC50 was greater than 10000 nM.

As to `Cc1cc(-n2nc3c(c2-n2ccn(-c4ccc5c(cnn5C)c4F)c2=O)[C@@H]2CC[C@H](C3)N2C(=O)c2cc3cc([C@H]4CCOC(C)(C)C4)cnc3n2[C@@]2(c3noc(=O)[nH]3)C[C@@H]2C)cc(C)c1F` [Compound 313, 3-((1S,2S)-1-(5-((S)-2,2-dimethyltetrahydro-2H-pyran-4-yl)-2-((4S,7R)-3-(3-(4-fluoro-1-methyl-1H-indazol-5-yl)-2-oxo-2,3-dihydro-1H-imidazol-1-yl)-2-(4-fluoro-3,5-dimethylphenyl)-2,4,5,6,7,8-hexahydro-4,7-epiminocyclohepta [c]pyrazole-9-carbonyl)-1H-pyrrolo[2,3-b]pyridin-1-yl)-2-methylcyclopropyl)-1,2,4-oxadiazol-5 (4H)-one], the EC50 was 18.7 nM.

Regarding `Cc1cc(-n2nc3c(c2-c2nc(-c4ccc5c(cnn5C)c4F)cn2C)[C@H](C)N(C(=O)c2cc4cc([C@H]5CCOC(C)(C)C5)ccc4n2[C@@]2(c4noc(=O)[nH]4)C[C@@H]2C)CC3)cc(C)c1F` [Compound 21, 3-((1S,2S)-1-(5-((S)-2,2-dimethyltetrahydro-2H-pyran-4-yl)-2-((S)-3-(4-(4-fluoro-1-methyl-1H-indazol-5-yl)-1-methyl-1H-imidazol-2-yl)-2-(4-fluoro-3,5-dimethylphenyl)-4-methyl-4,5,6,7-tetrahydro-2H-pyrazolo[4,3-c]pyridine-5-carbonyl)-1H-indol-1-yl)-2-methylcyclopropyl)-1,2,4-oxadiazol-5 (4H)-one], the EC50 amounted to 591 nM.

Regarding `Cc1cc(-n2nc3c(c2-n2ccn(-c4ccc5c(cnn5C)c4F)c2=O)[C@@H]2CC[C@H](C3)N2C(=O)c2cc3cc([C@H]4CCOC(C)(C)C4)ccc3n2[C@@]2(C(=O)NC3CC3)C[C@@H]2C)cc(C)c1F` [Compound 246, cis-(1S,2S)-N-cyclopropyl-1-[5-[(4S)-2,2-dimethyltetrahydropyran-4-yl]-2-[(1S,8R)-4-(4-fluoro-3,5-dimethyl-phenyl)-3-[3-(4-fluoro-1-methyl-indazol-5-yl)-2-oxo-imidazol-1-yl]-4,5,11-triazatricyclo[6.2.1.02,6]undeca-2,5-diene-11-carbonyl]indol-1-yl]-2-methyl-cyclopropanecarboxamide], the EC50 came to 699 nM.

In the case of `Cc1cc(-n2nc3c(c2-n2ccn(-c4ccc5c(cnn5C)c4F)c2=O)[C@@H]2CC[C@H](C3)N2C(=O)c2cc3cc([C@H]4CCOC(C)(C)C4)ccc3n2C(C)(C)c2noc(=O)[nH]2)cc(C)c1F` [Compound 140, 3-[1-[5-[(4S)-2,2-dimethyltetrahydropyran-4-yl]-2-[(1S,8R)-4-(4-fluoro-3,5-dimethyl-phenyl)-3-[3-(4-fluoro-1-methyl-indazol-5-yl)-2-oxo-imidazol-1-yl]-4,5,11-triazatricyclo[6.2.1.02,6]undeca-2,5-diene-11-carbonyl]indol-1-yl]-1-methyl-ethyl]-4H-1,2,4-oxadiazol-5-one], the EC50 was greater than 10000 nM.

In the case of `CCP(=O)(CC)c1ccc(-n2ccn(-c3c4c(nn3-c3cc(C)c(F)c(C)c3)C[C@H]3CC[C@@H]4N3C(=O)c3cc4cc([C@H]5CCOC(C)(C)C5)ccc4n3[C@@]3(c4noc(=O)[nH]4)C[C@@H]3C)c2=O)cc1NC` [Compound 203, 3-[(1S,2S)-1-[2-[(1S,8R)-3-[3-[4-diethylphosphoryl-3-(methylamino)phenyl]-2-oxo-imidazol-1-yl]-4-(4-fluoro-3,5-dimethyl-phenyl)-4,5,11-triazatricyclo[6.2.1.02,6]undeca-2,5-diene-11-carbonyl]-5-[(4S)-2,2-dimethyltetrahydropyran-4-yl]indol-1-yl]-2-methyl-cyclopropyl]-4H-1,2,4-oxadiazol-5-one], the EC50 was 919 nM.

As for `Cc1cc(-n2nc3c(c2-n2ccn(-c4ccc5c(cnn5C)c4F)c2=O)[C@H]2CC[C@@H]([C@H]3F)N2C(=O)c2cc3cc([C@H]4CCOC(C)(C)C4)ccc3n2[C@@]2(c3noc(=O)[nH]3)C[C@@H]2C)cc(C)c1F` [Compound 514, 3-[(1S,2S)-1-[5-[(4S)-2,2-dimethyltetrahydropyran-4-yl]-2-[(1R,7R,8S)-7-fluoro-4-(4-fluoro-3,5-dimethyl-phenyl)-3-[3-(4-fluoro-1-methyl-indazol-5-yl)-2-oxo-imidazol-1-yl]-4,5,11-triazatricyclo[6.2.1.02,6]undeca-2,5-diene-11-carbonyl]indol-1-yl]-2-methyl-cyclopropyl]-4H-1,2,4-oxadiazol-5-one], the EC50 is no less than 10000 nM.

Take `Cc1cc(-n2nc3c(c2-n2ccn(-c4ccc5c(cnn5C)c4F)c2=O)[C@@H]2COC[C@H](C3)N2C(=O)c2cc3cc([C@H]4CCOC(C)(C)C4)ncc3n2[C@@]2(c3noc(=O)[nH]3)C[C@@H]2C)cc(C)c1F` [Compound 225, 3-((1S,2S)-1-(5-((S)-2,2-dimethyltetrahydro-2H-pyran-4-yl)-2-((4R,8S)-3-(3-(4-fluoro-1-methyl-1H-indazol-5-yl)-2-oxo-2,3-dihydro-1H-imidazol-1-yl)-2-(4-fluoro-3,5-dimethylphenyl)-2,4,5,7,8,9-hexahydro-4,8-epiminooxocino [5,4-c]pyrazole-10-carbonyl)-1H-pyrrolo[2,3-c]pyridin-1-yl)-2-methylcyclopropyl)-1,2,4-oxadiazol-5 (4H)-one]: the EC50 is 34.1 nM.

Take `Cc1cc(-n2nc3c(c2-n2ccn(-c4ccc5c(cnn5C)c4F)c2=O)[C@@H]2CC[C@H](C3)N2C(=O)c2cc3cc([C@@H]4CCOC4(C)C)ccc3n2[C@@]2(c3noc(=O)[nH]3)C[C@@H]2C)cc(C)c1F` [Compound 420, 3-[(1S,2S)-1-[5-[(3S)-2,2-dimethyltetrahydrofuran-3-yl]-2-[(1S,8R)-4-(4-fluoro-3,5-dimethyl-phenyl)-3-[3-(4-fluoro-1-methyl-indazol-5-yl)-2-oxo-imidazol-1-yl]-4,5,11-triazatricyclo[6.2.1.02,6]undeca-2,5-diene-11-carbonyl]indol-1-yl]-2-methyl-cyclopropyl]-4H-1,2,4-oxadiazol-5-one]: the EC50 stood at 650 nM.

`Cc1cc(-n2nc3c(c2-n2ccn(-c4ccc5c(cnn5C)c4F)c2=O)[C@@H]2CC[C@H](C3)N2C(=O)c2cc3nc([C@H]4CCOC(C)(C)C4)sc3n2[C@@]2(c3noc(=O)[nH]3)C[C@@H]2C)cc(C)c1F` [Compound 206, 3-[(1S,2S)-1-[2-[(4S)-2,2-dimethyltetrahydropyran-4-yl]-5-[(1S,8R)-4-(4-fluoro-3,5-dimethyl-phenyl)-3-[3-(4-fluoro-1-methyl-indazol-5-yl)-2-oxo-imidazol-1-yl]-4,5,11-triazatricyclo[6.2.1.02,6]undeca-2,5-diene-11-carbonyl]pyrrolo[3,2-d]thiazol-4-yl]-2-methyl-cyclopropyl]-4H-1,2,4-oxadiazol-5-one]: the EC50 stood at 1440 nM.

On to `Cc1cc(-n2nc3c(c2-n2ccn(-c4ccc5c(cnn5C)c4F)c2=O)[C@@H]2CC[C@H](C3)N2C(=O)c2cc3cc(C4CCOC5(CCC5)C4)ccc3n2[C@@]2(c3noc(=O)[nH]3)C[C@@H]2C)cc(C)c1F` (stereo partly drawn) [Compound 415, 3-((1S,2S)-1-(2-((4S,7R)-3-(3-(4-fluoro-1-methyl-1H-indazol-5-yl)-2-oxo-2,3-dihydro-1H-imidazol-1-yl)-2-(4-fluoro-3,5-dimethylphenyl)-2,4,5,6,7,8-hexahydro-4,7-epiminocyclohepta [c]pyrazole-9-carbonyl)-5-(5-oxaspiro[3.5]nonan-8-yl)-1H-indol-1-yl)-2-methylcyclopropyl)-1,2,4-oxadiazol-5 (4H)-one], for which the EC50 stood at 361 nM.

`Cc1cc(-n2nc3c(c2-c2ncn(-c4ccc5c(cnn5C)c4F)c2C)[C@H](C)N(C(=O)c2cc4cc([C@H]5CCOC(C)(C)C5)ccc4n2C2(c4noc(=O)[nH]4)CC2)CC3)cc(C)c1F` [Compound 30, 3-(1-(5-((S)-2,2-dimethyltetrahydro-2H-pyran-4-yl)-2-((4S)-3-(1-(4-fluoro-1-methyl-1H-indazol-5-yl)-5-methyl-1H-imidazol-4-yl)-2-(4-fluoro-3,5-dimethylphenyl)-4-methyl-4,5,6,7-tetrahydro-2H-pyrazolo[4,3-c]pyridine-5-carbonyl)-1H-indol-1-yl)cyclopropyl)-1,2,4-oxadiazol-5 (4H)-one]: the EC50 is greater than 10000 nM.

Turning to `Cc1cc(-n2nc3c(c2-n2ccn(-c4ccc5[nH]ncc5c4F)c2=O)[C@@H]2CC[C@H](C3)N2C(=O)c2cc3cc([C@H]4CCOC5(CC5)C4)ccc3n2[C@@]2(c3noc(=O)[nH]3)C[C@@H]2C)cc(C)c1F` [Compound 436, 3-((1S,2S)-1-(2-((4S,7R)-3-(3-(4-fluoro-1H-indazol-5-yl)-2-oxo-2,3-dihydro-1H-imidazol-1-yl)-2-(4-fluoro-3,5-dimethylphenyl)-2,4,5,6,7,8-hexahydro-4,7-epiminocyclohepta [c]pyrazole-9-carbonyl)-5-((S)-4-oxaspiro[2.5]octan-7-yl)-1H-indol-1-yl)-2-methylcyclopropyl)-1,2,4-oxadiazol-5 (4H)-one], the EC50 is 70 nM.

The assay is the same for the next values; noted with them: text to Table 1d, bridge atoms configured out of the plane or toward the reader.
For the compound `Cc1cc(-n2nc3c(c2-n2ccn(-c4ccc5c(cnn5C)c4F)c2=O)[C@H]2CC[C@@H]([C@H]3F)N2C(=O)c2cc3cc([C@H]4CCOC(C)(C)C4)ccc3n2[C@@]2(c3noc(=O)[nH]3)C[C@@H]2C)cc(C)c1F` [Compound 514, 3-[(1S,2S)-1-[5-[(4S)-2,2-dimethyltetrahydropyran-4-yl]-2-[(1R,7R,8S)-7-fluoro-4-(4-fluoro-3,5-dimethyl-phenyl)-3-[3-(4-fluoro-1-methyl-indazol-5-yl)-2-oxo-imidazol-1-yl]-4,5,11-triazatricyclo[6.2.1.02,6]undeca-2,5-diene-11-carbonyl]indol-1-yl]-2-methyl-cyclopropyl]-4H-1,2,4-oxadiazol-5-one], the potency result is “little or no potency”.

One may read the EC50 as the concentration that produces a half-maximal response.
